Experimental data: the NIST ThermoML archive (doi:10.1021/je500116z)
± gives the expanded uncertainty stated by the source.

Details: Liquid, Ebulliometric method (Recirculating still)

SMILES	vapor or sublimation pressure (288.15 K) [kPa]	vapor or sublimation pressure (298.15 K) [kPa]	vapor or sublimation pressure (308.15 K) [kPa]
CC(C)CCl [1-chloro-2-methylpropane]	13 ± 0.097	20.35 ± 0.13	30.45 ± 0.17
CC(C)(C)Cl [2-chloro-2-methylpropane]	26.42 ± 0.16	40.13 ± 0.22	59.52 ± 0.3
CCC(C)Cl (configuration not stated) [2-chlorobutane]	13.36 ± 0.099	20.91 ± 0.13	31.55 ± 0.18
CCCCCC [hexane]	12.89 ± 0.097	20.22 ± 0.13	30.7 ± 0.17
